Each structure is given as a SMILES string. Residues, ends and D or L forms follow the SMILES beside them. *: point of attachment. Tos = Cc1ccc(S(=O)(=O)*)cc1

Molecule `CON=C1CSc2ccccc2CN1` came in with a melting point of 101 to 102 °C. With `Cc1cc2n(c1C(=O)c1cccs1)CCC2C(=O)OC(C)C` (stereo not given) the figure was 102 °C; with `O=C(Nc1cc(-c2nnc(Cc3ccccc3)o2)ccn1)c1ccccc1`, 187 to 189 °C. Take `COc1ccc2c(c1)Nc1cccc(S(C)(=O)=O)c1S2`: the melting point was 204 to 206 °C. `CCCCn1ccc(Cc2cnc(NCCCCc3ncc(Br)cc3N)[nH]c2=O)cc1=O` gave a melting point of 140 to 150 °C. As to `CC1(C)CCOC1=C(Sc1ccc(Cl)cc1)n1ccnc1`, the melting point is 134 °C. For `N#CCC(C#N)NNc1c(Cl)cc(C(F)(F)F)cc1Cl` (stereo not given), the melting point was in the range of 101 to 102 °C. For `Cc1cc(C)c(-n2[nH]c(Nc3ccc(Cl)cc3)cc2=O)c(C)c1N`, the melting point lay within 236 to 237 °C.

Regarding `CC(=O)Nc1ccc(F)c(-c2ccccn2)c1F`, the melting point lay within 132 to 133 °C. In turn, `O=C(O)C1=CCC2C1C(=O)C2(Cl)Cl` (stereo not given) displayed a melting point of 157 to 160 °C. Molecule `CC(C)NC1=NS(=O)(=O)c2ccc(Cc3nc(C4CC4)no3)cc2N1` showed a melting point of 255 to 259 °C. Molecule `CC(C)(C)c1ccc(-c2ccc(C(=O)N=[N+]=[N-])s2)cc1` showed a melting point of 162 to 164 °C. For `CCCCNc1nc(N2CC3CCC(CC3)C2)nc(N2CC3CCC(CC3)C2)n1`, the melting point is 101 to 103 °C. `COc1ccc(S(=O)(=O)N2c3ccccc3-c3ccc(F)cc3[C@@H]2C)cc1` displayed a melting point of 197 to 198 °C. As for `CCN(CC)c1ccc(NC(=O)c2ccc(-c3[nH]nc4c3C(=O)c3c(NC(=O)NN5CCOCC5)cccc3-4)s2)cc1`, the melting point fell in the range of 198 to 199 °C. With `O=C1Nc2cc(Br)ccc2N2CCc3cccc1c32`, the melting point lay in the range of 255 to 257 °C. With `Cc1cc(-n2ccnc2)c2cccc(OCc3c(Cl)ccc(-n4cccc4CNC(=O)C=Cc4ccc(C(=O)O)cc4)c3Cl)c2n1` the figure was 166 to 170 °C; with `Cn1cnc2nc(Oc3ccccc3)nn2c1=S`, 209 to 211 °C; with `O=C(O)/C=C/n1cnc2ccc(OCCO)cc2c1=O`, 247 to 248 °C. For `CCOC(=O)c1ccc(-c2nc(COc3ccc(COc4nn(-c5ccccc5)cc4C=O)cc3OC)c(C)o2)o1`, the melting point lay within 143 to 145 °C.

The molecule `CC(C)=Cc1ccc(-c2c(C(C)C)ccc(CO)c2C(C)C)nc1` showed a melting point of 93 to 95 °C. In the case of `Cc1oc(-c2ccccc2)nc1COc1ccc(C=CC=O)cc1C(F)(F)F`, the melting point was in the range of 138 to 139 °C. Regarding `COC(=O)c1ccc(CCCO)c(C23CC4CC(CC(C4)C2)C3)c1`, the melting point stood at 77 °C. For the molecule `CC(=O)NC[C@H]1CN(c2ccc3c(c2)CSCC3)C(=O)O1`, the melting point was in the range of 139 to 140 °C. `CC(C)c1nc2ccccn2c(=O)c1Br` came in with a melting point of 204 to 207 °C. On to `O=C(O)C1=CCCN1C(=O)CCSSCCC(=O)N1CCC=C1C(=O)O`, for which the melting point was 158 to 160 °C. `O=C1CC2SCCCN12` (stereo not given) returned a melting point of 145 to 147 °C. The molecule `Cc1ccc(S(=O)(=O)N2CCC[C@H]2C(=O)N[C@@H](CCCCN)C(=O)O)cc1` (Tos-Pro-Lys-OH) returned a melting point above 200 °C. `COc1ccc2cc(Br)ccc2c1C(=O)N(C)C` yielded a melting point of 124 to 125 °C. Then `CCS(=O)(=O)CCC(=O)NNC(=O)N1Cc2ccccc2Oc2ccc(OC)cc21`, with 187 to 190 °C. `CN(C)CCNC(=O)c1c[nH]c(=S)n1C1CCc2c(F)cc(F)cc2C1` (stereo not given) showed a melting point of 125 °C. Molecule `CCOC(=O)c1cc2cc(F)cnc2n1Cc1ccncc1` yielded a melting point of 236 to 237 °C. For the molecule `CC(=NNc1ccc(-c2c[nH]c(=O)cn2)cc1)c1ccncc1`, the melting point lay in the range of 175 to 179 °C. With `O=C(Nc1ccc(C2CC(F)(F)C2(F)F)cc1)Nc1nonc1-c1ccccc1` (stereo not given) the figure was 206 °C; with `CC(=O)OCCn1c2ccccc2c2ccccc21`, 73 to 74.5 °C.

A word on the melting point: it is the temperature, or range, at which the solid turns liquid.

The values above are taken from a melting point compilation (Tetko et al.; mined from patent text by program, amines drawn as free bases though some values may be those of a salt).
